Patent US10975016B2, “Solvent compounds for use as glycol ether replacements” (TBF ENVIRONMENTAL TECHNOLOGY INC., priority 2017, dated 2021)
One block for each compound: values may come before it.

Key:
[1] = XBC vs Dipropylene Glycol Methyl Ether (DPM) in acrylic modified epoxy ester based paint: physical and coating properties; details: for Specific Gravity: acrylic modified epoxy ester (Epotuf 38-698) based paint; for VOC (Without Water) / Viscosity / Volume Solid % / Weight Solid %: acrylic modified epoxy ester based paint
Description: The properties of XBC4, in comparison to dipropylene glycol methyl ether (DPM), in an acrylic-modified epoxy ester-based paint were determined to be as follows: […]

[2] = VOC (calculated) of water-based paint formulas; type: physicochemical; details: water-based paints, substituted for propylene glycol
Description: Bis(2-ButoxyEthyl Carbonate) was tested in a number of water-based flat paints, as follows. Water was added to a container and the additives were added. The container was placed under a high speed disperser and mixed under slow speed. Natrosol™ hydroxyethylcellulose was added slowly and allowed to mix for 10 minutes increasing speed as needed. The pigments were then added, slowly increasing speed and water as needed. After the pigments were added, the speed was increased to about 2800 rpms. After 10 to 15 minutes the speed was reduced to about 1000 rpms. The latex was added slowly into the vortex. The rest of the water and other additives (depending on the formulation) were then added and allowed to mix for 5 minutes.
In some tests, bis(2-ButoxyEthyl Carbonate) was substituted for propylene glycol to evaluate its effectiveness in replacing propylene glycol to create a lower VOC and lower toxicity material.

[3] = Physical/chemical properties of XBC4 (GlykoSol)

Specific Gravity [1]: 1.23 g/cm3
VOC (Without Water) [1]: 110 g/L
Viscosity [1]: 90 KU
Volume Solid % [1]: 35.5%
Weight Solid % [1]: 46.9%
Structure (SMILES): COC(C)COC(C)CO (stereo not drawn) [DPM, dipropylene glycol methyl ether, reference compound]

Structure (SMILES): CCCCOCCOC(=O)OCCOCCCC [XBC4, bis(2-ButoxyEthyl Carbonate)]
Specific Gravity [1]: 1.23 g/cm3
VOC (Without Water) [1]: 34 g/L
Viscosity [1]: 90 KU
Volume Solid % [1]: 35.5%
Weight Solid % [1]: 46.9%
VOC of paint after replacement of propylene glycol [2]: far lower or zero (0) VOC materials
Auto Ignition Temp [3]: 305 (581° F.) ° C.
Boiling Point [3]: 297 (566.6° F.) ° C.
Butyl Cellosolve Solubility [3]: Soluble
Clarity [3]: Clear
Colour (Alpha, max) [3]: 10 (Clear)
Flashpoint [3]: 146.1 (295° F.) ° C.
Odor [3]: No Odor
Partial Coefficient (Range) [3]: 1.9-3.0
Volatility (%) [3]: 100%
Water Solubility [3]: Not Soluble
Specific Gravity ([3]; @15.5° C.): 0.985
Density ([3]; @ 20° C.): 0.980 (8.22 lbs/gal) g/mL
Solubility in H2O ([3]; @ 25° C.): Partially Soluble
Vapour Pressure ([3]; @ 25° C.): 0.008 mm Hg
Viscosity ([3]; @ 25° C.): 0.60 cP
VOC ([3]; ASTM 313-91): 0 g/L
Vapour Density (Air = 1) ([3]; Air = 1): 0.95
TGA Weight Loss ([3]; Range 115-240°): 99.47%
Evaporation Rate (n-Butyl Acetate = 1) ([3]; n-Butyl Acetate = 1): 0.01
